Experimental data taken from US20170260285A1, “METHODS FOR TREATING CANCER” (UNIVERSITY OF IOWA RESEARCH FOUNDATION, priority 2014, published 2017).
“Also recorded” adds a separate entry of the source.

B1: CAT: Pegylated catalase (Sigma Aldrich), antioxidant, 100 U/mL (protein, UniProt P00432 2-527, looked up)
Catalase: ADNRDPASDQMKHWKEQRAAQKPDVLTTGGGNPVGDKLNSLTVGPRGPLLVQDVVFTDEMAHFDRERIPERVVHAKGAGAFGYFEVTHDITRYSKAKVFEHIGKRTPIAVRFSTVAGESGSADTVRDPRGFAVKFYTEDGNWDLVGNNTPIFFIRDALLFPSFIHSQKRNPQTHLKDPDMVWDFWSLRPESLHQVSFLFSDRGIPDGHRHMNGYGSHTFKLVNANGEAVYCKFHYKTDQGIKNLSVEDAARLAHEDPDYGLRDLFNAIATGNYPSWTLYIQVMTFSEAEIFPFNPFDLTKVWPHGDYPLIPVGKLVLNRNPVNYFAEVEQLAFDPSNMPPGIEPSPDKMLQGRLFAYPDTHRHRLGPNYLQIPVNCPYRARVANYQRDGPMCMMDNQGGAPNYYPNSFSAPEHQPSALEHRTHFSGDVQRFNSANDDNVTQVRTFYLKVLNEEQRKRLCENIAGHLKDAQLFIQKKAVKNFSDVHPEYGSRIQALLDKYNEEKPKNAVHTYVQHGSHLSAREKANL
modifications: PEG
notes: Pegylated catalase (Sigma Aldrich), antioxidant, 100 U/mL
B2: Exogenous IL-1α: Recombinant human IL-1α from Life Technologies, 1 ng/mL (protein, UniProt P01583 113-271, looked up)
Interleukin-1 alpha: SAPFSFLSNVKYNFMRIIKYEFILNDALNQSIIRANDQYLTAAALHNLDEAVKFDMGAYKSSKDDAKITVILRISKTQLYVTAQDEDQPVLLKEMPEIPKTITGSETNLLFFWETHGTKNYFTSVAHPNLFIATKQDYWVCLAGGPPSITDFQILENQA

Tests used:
[1] = test system: HNSCC tumor cell lines; settings: previous studies (ref. 10); cited from earlier work
[2] = test system: SQ20B HNSCC cells; assay: IL-6 secretion by ELISA in SQ20B cells; assay type: cell-based, human; settings: for erlotinib-induced IL-6: agent pre-treatment then erlotinib 5 μM 48 h; for baseline IL-6 (absence of erlotinib): agent 2 h (1 h for caspase inhibitors, NAC, CAT) then DMSO 48 h
From the text: (§1) Cal-27 and FaDu human head and neck squamous carcinoma (HNSCC) cells were obtained from the American Type Culture Collection (ATCC, Manassas, Va.). SQ20B HNSCC cells (16) were a gift from Dr. Anjali Gupta (Department of Radiation Oncology, The University of Iowa). All HNSCC cell lines are EGFR positive and are sensitive to EGFR inhibitors. All cell lines were authenticated by the ATCC for viability (before freezing and after thawing), growth, morphology and isoenzymology. Cells were stored according to the supplier's instructions and used over a course of no more than 3 months after resuscitation of frozen aliquots. Cultures were maintained in 5% CO2 and air humidified in a 37° C. incubator.
(§2) Erlotinib (ERL; Tarceva) and anakinra (ANA; Kineret) were obtained from the inpatient pharmacy at the University of Iowa Hospitals and Clinics. Drugs were added to cells at final concentrations of 5 μM ERL and 10 ng/mL or 50 ng/mL ANA. Human IgG and […] (DMSO) were used as controls and were obtained from Sigma Aldrich. Human IL-1α, IL-1β, and IL-18Rα neutralizing antibodies were obtained from R&D Systems and were used at a concentration of 0.5 μg/mL. Recombinant human IL-1α was obtained from Life Technologies and administered at a concentration of 1 ng/mL. Ac-Y-VAD-cho, a caspase-1 inhibitor (CalBioChem), was suspended in DMSO and added at a concentration of […], a pan-caspase inhibitor (Promega) was diluted in DMSO and added at a concentration of 20 μM. TLR agonists were used at the following concentrations: Pam3CSK4 (200ng/mL), FSL-1 (100 ng/mL), Poly I:C (20 μg/mL), LPS (200 ng/mL), Flagellin (200 ng/mL), Gardiquimod (1 μg/mL), CL075 (1 μg/mL), and E. coli DNA (1 μg/mL). All TLR agonists were obtained from InvivoGen. The required volume of each drug was added directly to complete cell culture media on cells to achieve the indicated final concentrations.
(§3) Levels of IL-6, IL-1α and IL-1β of treated cells were determined by ELISA. The culture media of the treated cells were harvested and each cytokine was detected according to the manufacturer's protocol using the Human Quantikine ELISA Kits (R&D Systems, Minneapolis, Minn.).
as §1, with “(20)” for “(16)”
(§4) Erlotinib (ERL; Tarceva), anakinra (ANA; Kineret) and N-acetyl cysteine (NAC; Acetadote) were obtained from the inpatient pharmacy at the University of Iowa Hospitals and Clinics. Drugs were added to cells at final concentrations of 5 μM ERL, 10 ng/mL or 50 ng/mL ANA and 20 mM NAC. Human IgG and […] (DMSO) were used as controls and were obtained from Sigma Aldrich. Pegylated catalase (CAT; Sigma Aldrich) was used at a final concentration of 100 U/mL. Human IL-1α, IL-1β, and IL-18Ra neutralizing antibodies were obtained from R&D Systems and were used at a concentration of 0.5 μg/mL. Recombinant human IL-1α was obtained from Life Technologies and administered at a concentration of 1 ng/mL. Ac-Y-VAD-cho (CalBioChem) was suspended in DMSO and used at 5 μM. Z-VAD-fmk (Promega) was diluted in DMSO and used at 20 μM. TLR agonists were used at the following concentrations: Pam3CSK4 (200 ng/mL), FSL-1 (100 ng/mL), Poly I:C (20 μg/mL), LPS (200 ng/mL), Flagellin (200 ng/mL), Gardiquimod (1 μg/mL), CL075 (1 μg/mL), and E. coli DNA (1 μg/mL). All TLR agonists were obtained from InvivoGen. […]

[3] = test system: Cal-27 HNSCC cells; assay: IL-6 secretion by ELISA in Cal-27 cells; assay type: cell-based, human; settings: for erlotinib-induced IL-6: agent pre-treatment then erlotinib 5 μM 48 h; for baseline IL-6 (absence of erlotinib): agent 2 h (1 h for caspase inhibitors, NAC, CAT) then DMSO 48 h
From the text: as §1, §2, §3
as §1, with “(20)” for “(16)”
as §4

[4] = test system: SQ20B HNSCC cells; assay: IL-1α release by ELISA in SQ20B cells; assay type: cell-based, human; settings: agent 1 h then erlotinib 5 μM 48 h
Protocol: as §2, §3
(§5) Erlotinib (ERL; Tarceva), anakinra (ANA; Kineret) and N-acetyl cysteine (NAC; Acetadote) were obtained from the inpatient pharmacy at the University of Iowa Hospitals and Clinics. Drugs were added to cells at final concentrations of 5 μM ERL, 10 ng/mL or 50 ng/mL ANA and 20 mM NAC. Human IgG and […] (DMSO) were used as controls and were obtained from Sigma Aldrich. Pegylated catalase (CAT; Sigma Aldrich) was used at a final concentration of 100 U/mL. Human IL-1α, IL-1β, and IL-18Ra neutralizing antibodies were obtained from R&D Systems and were used at a concentration of 0.5 μg/mL. Recombinant human IL-1α was obtained from Life Technologies and administered at a concentration of 1 ng/mL. Ac-Y-VAD-cho (CalBioChem) was suspended in DMSO and used at 5 μM. Z-VAD-fmk (Promega) was diluted in DMSO and used at 20 μM. TLR agonists were used at the following concentrations: Pam3CSK4 (200 ng/mL), FSL-1 (100 ng/mL), Poly I:C (20 μg/mL), LPS (200 ng/mL), Flagellin (200 ng/mL), Gardiquimod (1 μg/mL), CL075 (1 μg/mL), and E. coli DNA (1 μg/mL). All TLR agonists were obtained from InvivoGen. The required volume of each drug was added directly to complete cell culture media on cells to achieve the indicated final concentrations.
(§6) Levels of IL-6, IL-1α and IL-1β of treated cells were determined by ELISA. The culture media of the treated cells were harvested and each cytokine was detected according to the manufacturer's protocol using Human Quantikine ELISA Kits (R&D Systems, Minneapolis, Minn.).

[5] = test system: Cal-27 HNSCC cells; assay: IL-1α release by ELISA in Cal-27 cells; assay type: cell-based, human; settings: for erlotinib-induced IL-1α release: agent 1 h then erlotinib 5 μM 48 h
Protocol: as §2, §3, §5, §6

[6] = test system: SQ20B and Cal27 cells; assay type: cell-based
Protocol: To determine whether cell death is responsible for IL-1α release, we used Z-VAD-fmk, a pan-caspase inhibitor, to prevent cell death. We also tested Ac-Y-VAD-cho, caspase-1 inhibitor, to assess inflammasome involvement. After testing various combinations of these inhibitors, we found an optimal concentration of 20 μM Z-VAD and 5μM Y-VAD. […] To confirm that the pan-caspase inhibitor was effectively blocking cell death, we performed a clonogenic assay with erlotinib- and Z-VAD-treated cells in SQ20B cells.

Molecule	erlotinib-induced IL-6 [2]	erlotinib-induced IL-6 [3]	erlotinib-induced IL-1α release [4]	erlotinib-induced IL-1α release [5]	further results
CS(=O)(=O)CCNCc1ccc(-c2ccc3ncnc(Nc4ccc(OCc5cccc(F)c5)c(Cl)c4)c3c2)o1 [lapatinib]					IL-6 expression/secretion in HNSCC cell lines treated with EGFRIs [1]: significant upregulation
panitumumab					IL-6 expression/secretion in HNSCC cell lines treated with EGFRIs [1]: significant upregulation
CC(=O)N[C@@H](CS)C(=O)O [NAC, N-acetyl cysteine]	significantly suppressed	significantly suppressed	significantly suppressed	significantly suppressed	
Ac-Y-VAD-cho	did not affect	did not affect	did not see a decrease; also recorded: not observed	did not see a decrease; also recorded: not observed	baseline IL-1α levels ([5]; agent 1 h then DMSO 48 h): not observed; highest dose that did not result in toxicity (optimal concentration) [6]: 5 µM
anakinra	significantly reduced; also recorded: effectively blocked	significantly reduced; also recorded: effectively blocked			baseline IL-6 (absence of erlotinib) [2]: significantly reduced; erlotinib-induced IL-6 ([2]; listed as Anakinra): effectively blocked; baseline IL-6 (absence of erlotinib) [3]: significantly reduced; erlotinib-induced IL-6 ([3]; listed as Anakinra): effectively blocked
B1	significantly suppressed	significantly suppressed	significantly suppressed	significantly suppressed	
B2	increased	increased			baseline IL-6 (absence of erlotinib) [2]: increased; baseline IL-6 (absence of erlotinib) [3]: increased
